The numbers were not newly measured in patent US20250129429A1, “GENE FUSIONS IN SARCOMA” (Foundation Medicine, Inc., priority 2021, published 2025), which cites them from elsewhere.

For one data set, the target named is TrkA (Homo sapiens, UniProt P04629).
The next data set concerns the target TrkB (Homo sapiens, UniProt Q16620).
The target of a further data set is NGF dimer (Homo sapiens, UniProt P01138). The note with it: binds the NGF dimer.
The subject of data set [1] is NTRK1 fusion-positive tumors. The note with it: patients with NTRK1 fusion-positive tumors.
Data set [2] relates to various solid tumors harboring NTRK fusions.
Data set [3] deals with various solid tumors with NTRK fusions. The note with it: monotherapy; adult and pediatric patients, with and without CNS metastases.
In data set [4] the test system is NTRK fusion-positive AML cell lines.

Chain of TrkA (P04629 33-796): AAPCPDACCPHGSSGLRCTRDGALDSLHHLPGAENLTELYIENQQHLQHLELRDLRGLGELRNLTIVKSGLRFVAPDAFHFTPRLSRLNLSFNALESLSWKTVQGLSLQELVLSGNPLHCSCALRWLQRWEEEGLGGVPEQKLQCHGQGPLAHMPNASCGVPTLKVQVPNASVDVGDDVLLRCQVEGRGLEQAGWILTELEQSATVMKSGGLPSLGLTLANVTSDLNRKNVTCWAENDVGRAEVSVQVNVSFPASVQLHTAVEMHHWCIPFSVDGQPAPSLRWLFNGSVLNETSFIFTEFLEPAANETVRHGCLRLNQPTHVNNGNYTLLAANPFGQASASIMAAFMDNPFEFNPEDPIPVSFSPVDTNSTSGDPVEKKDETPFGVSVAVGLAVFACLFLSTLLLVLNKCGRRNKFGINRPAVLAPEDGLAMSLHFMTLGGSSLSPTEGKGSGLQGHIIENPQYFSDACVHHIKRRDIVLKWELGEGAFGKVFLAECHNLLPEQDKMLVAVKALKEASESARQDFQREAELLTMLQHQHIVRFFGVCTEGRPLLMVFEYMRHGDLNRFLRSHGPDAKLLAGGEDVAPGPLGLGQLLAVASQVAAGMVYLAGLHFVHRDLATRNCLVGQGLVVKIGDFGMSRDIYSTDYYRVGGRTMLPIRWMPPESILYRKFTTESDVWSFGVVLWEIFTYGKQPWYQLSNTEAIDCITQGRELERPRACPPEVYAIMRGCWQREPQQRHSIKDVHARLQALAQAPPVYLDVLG
Chain of TrkB (Q16620 32-822, species assumed): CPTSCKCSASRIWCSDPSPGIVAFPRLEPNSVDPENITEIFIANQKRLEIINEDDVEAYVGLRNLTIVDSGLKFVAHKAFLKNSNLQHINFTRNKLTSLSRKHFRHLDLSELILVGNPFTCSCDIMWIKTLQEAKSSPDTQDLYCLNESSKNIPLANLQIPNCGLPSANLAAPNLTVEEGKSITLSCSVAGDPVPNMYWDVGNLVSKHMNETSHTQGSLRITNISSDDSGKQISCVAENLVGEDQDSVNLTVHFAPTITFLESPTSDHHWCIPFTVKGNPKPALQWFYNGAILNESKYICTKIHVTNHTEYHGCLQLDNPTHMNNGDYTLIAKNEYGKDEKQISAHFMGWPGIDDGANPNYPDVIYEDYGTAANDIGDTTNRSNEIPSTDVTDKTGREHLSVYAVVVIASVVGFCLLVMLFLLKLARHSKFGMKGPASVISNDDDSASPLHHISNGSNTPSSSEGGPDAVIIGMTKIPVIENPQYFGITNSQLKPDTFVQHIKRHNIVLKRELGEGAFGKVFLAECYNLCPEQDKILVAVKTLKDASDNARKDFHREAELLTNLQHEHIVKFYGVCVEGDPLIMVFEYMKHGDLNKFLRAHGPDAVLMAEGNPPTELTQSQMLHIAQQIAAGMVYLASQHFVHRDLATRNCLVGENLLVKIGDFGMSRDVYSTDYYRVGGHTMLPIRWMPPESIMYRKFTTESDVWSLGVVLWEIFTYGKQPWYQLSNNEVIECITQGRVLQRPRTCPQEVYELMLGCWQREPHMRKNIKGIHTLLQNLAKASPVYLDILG
Chain of NGF dimer (P01138 122-241): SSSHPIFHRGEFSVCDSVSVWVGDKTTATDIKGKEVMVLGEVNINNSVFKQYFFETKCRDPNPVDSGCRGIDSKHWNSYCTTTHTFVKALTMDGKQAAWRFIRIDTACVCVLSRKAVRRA

`NC(=O)Nc1snc(S[C@@H]2CCCCc3ccccc32)c1C(N)=O` [isothiazole 5n]: at TrkA, the IC50 was below 1 nM.

Regarding `CC(C)Oc1cc(Nc2nc(N[C@@H](C)c3ccc(F)cn3)ncc2Cl)n[nH]1` [AZ-23, 5-chloro-N-[(1S)-1-(5-fluoropyridin-2-yl)ethyl]-N′-(5-propan-2-yloxy-1H-pyrazol-3-yl)pyrimidine-2,4-diamine], the half-inhibitory concentration (IC50) on TrkB is 8 nM.

For the molecule `c1ccc2c(c1)[nH]c1c3cccnc3ccc21` [pyridocarbazole], the 50% inhibitory concentration (IC50) at TrkA is 6 nM.

`Cc1cc2nc3c(=O)[nH]c(=O)nc-3n(C)c2cc1C=O` [Ro 08-2750]: the dissociation constant (Kd) at NGF dimer was around 1000 nM.

With `C[C@@H](Oc1cc(-c2cnn(C3CCNCC3)c2)cnc1N)c1c(Cl)ccc(F)c1Cl` [crizotinib], in data set [1], the clinical responses result is “Durable clinical responses”.

On to `O=C(Nc1cnn2ccc(N3CCC[C@@H]3c3cc(F)ccc3F)nc12)N1CC[C@H](O)C1` [larotrectinib], for which the CR in data set [2] (adult and pediatric patients with solid tumors harboring NTRK fusions) is 17 % of patients. Moreover, the ORR in data set [2] (adult and pediatric patients with various solid tumors harboring NTRK fusions (88/109)) is recorded as 81%. Also, the responses ongoing in data set [2] (at 12 months of treatment) is recorded as 75-81 % of patients. The intracranial efficacy entry in data set [2] (individuals with NTRK fusion-positive gliomas or brain metastases) is on record as “has been demonstrated”.

In the case of `CN1CCN(c2ccc(C(=O)Nc3n[nH]c4ccc(Cc5cc(F)cc(F)c5)cc34)c(NC3CCOCC3)c2)CC1` [entrectinib, N-[5-(3,5-Difluorobenzyl)-1H-indazol-3-yl]-4-(4-methyl-1-piperazinyl)-2-(tetrahydro-2H-pyran-4-ylamino)benzamide], the clinical benefit result in data set [3] was “Clinical benefit with entrectinib monotherapy has been achieved”. In addition, in data set [4], the preclinical sensitivity result is “preclinical sensitivity has been observed”.
